Assay results: patent publication US20120071475A1, “UREA DERIVATIVES HAVING PI3K-INHIBITING ACTIVITY” (SHIONOGI & CO., LTD., priority 2009, published 2012)
Values after ≈ are worked out from the molar mass of the structure shown. Like-named read-outs stand apart in the source and are kept apart here.

Columns and labels:
[1] = Metabolic stability test (pooled human liver microsome); format: in vitro ADME; settings: percentage of test compound remained after 30 minutes, pooled human liver microsome 0.5 mg protein/mL, 1 mmol/L NADPH, 37° C.; for hLMS_ox(at 0.5 μM) %: compound 0.5 μM
Procedure, shortened: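 Pooled human liver microsomes (0.5 mg protein/mL) incubated with compound and 1 mmol/L NADPH at 37° C. in pH 7.4 Tris buffer for 0 or 30 min. Parent quantified by LC/MS/MS after methanol/acetonitrile quench; value is % remaining at 30 min versus 0 min.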

[2] = target: T1, PI3Kγ (Homo sapiens, UniProt P48736); assay: PI3Kγ inhibitory activity (PI3-kinase HTRF assay, inhibition ratio); format: biochemical; settings: 0.5 h, compound at 10 μmol/L; read-out: PI3Kg Inhibition Ratio % (10 μM)
Procedure, shortened: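 Compound at 10 μmol/L preincubated 10 min with PI3Kγ and PIP2 substrate, then reacted with ATP for 30 minutes at room temperature; the compound, substrate and ATP figures as printed (40 μmol/L each) are solution concentrations. HTRF 665/620 nm ratio read after 18 hours. Inhibition ratio calculated against no-compound (100%) and no-enzyme (0%) controls.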

[3] = Solubility test (artificial intestinal juice pH 6.8, 1% DMSO); format: physicochemical; settings: artificial intestinal juice pH 6.8 with 1% DMSO, fassgf or other biorelevant, kinetic from dmso stock, 25° C.
Protocol: The solubility of a compound was determined under a condition in which 1% DMSO was added. 10 mmol/L compound solution was prepared using DMSO, and then 6 μL of the compound solution was added to 594 μL of artificial intestinal juice in pH 6.8 (to 250 mL of 0.2 mol/L potassium dihydrogen phosphate reagent solution was added 118 mL of 0.2 mol/L NaOH reagent solution and water to provide a final volume of 1000 mL). After standing at 25° C. for 16 hours, the mixed solution was filtered with suction. The filtrate was diluted twice with methanol/water (1/1), and then a concentration in the filtration was measured with HPLC or LC/MS/MS by the absolute calibration method.

[4] = target: PI3Kα (Homo sapiens, UniProt P42336); assay: PI3Kα inhibitory activity (Ki value); format: biochemical
Protocol: (§1) According to Example 2 above, after 80 μg/mL PI-3 kinase γ of the enzyme solution (80 μg/mL PI-3 kinase γ, 10 mmol/L MgCl2, 5 mmol/L DTT) was changed to 0.8 μg/mL PI-3 kinase α, an inhibition ratio was calculated by a method similar to the method for measuring PI3Kγ inhibitory activity, and then defined as the PI3Kα inhibitory activity.
The α inhibitory activity (Ki value) of a compound was evaluated according to the following procedure.
According to Example 4 above, a Km value for PI3Kα was determined to calculate a Ki value.

[5] = target: PI3Kδ (Homo sapiens, UniProt O00329); assay: PI3Kδ inhibitory activity (Ki value); format: biochemical
Protocol: as §1, with “158” for “0.8”, “δ,” for “α, an inhibition ratio was calculated by”, “activity was used to calculate an inhibition ratio, which was” for “activity, and then”, “PI3Kδ” for “PI3Kα”
According to Example 4 above, a Km value for PI3Kδ was determined to calculate a Ki value.

[6] = target: T2, CYP3A4 (Homo sapiens, UniProt P08684); assay: CYP3A4 fluorescence MBI test; format: in vitro ADME; settings: difference in IC50 with 0 or 30 minutes pre-reaction; CYP3A4 expressed in E. coli, substrate 7-BFC
T2 construct: host or cells: E. coli
Procedure, shortened: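 E. coli-expressed CYP3A4 debenzylating 5.6 μmol/L 7-BFC to fluorescent 7-HFC (Ex 420/Em 535 nm) in K-Pi pH 7.4 at 25° C, 15 min reaction. NADPH pre-incubation of 0 or 30 min, with 10-fold dilution before reaction. IC50 from 0.625–20 μmol/L (6 points); (+) for an IC50 shift ≥5 μmol/L, (−) for ≤3 μmol/L.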

[7] = target: T1, PI3Kγ; assay: PI3Kγ inhibitory activity (Ki value); format: biochemical
Protocol: The PI3Kγ inhibitory activity (Ki value) of a compound was evaluated according to the following procedure:
5 μL of a compound solution containing 10% DMSO and […] of a compound was changed to 5 μL of a compound solution containing 10% DMSO and either 200, 64, 20, 6.4, 2, 0.64, or 0.20 μmol/L of the compound (optionally, this is diluted to a lower concentration). Using a method similar to the method for measuring PI3Kγ inhibitory activity, inhibition ratios of PI3Kγ were measured in the presence of the compound at 50, 16, 5, 1.6, 0.5, 0.16, and 0.05 μmol/L (optionally, a lower concentration). Then an IC50 value was calculated by a logistic approximation method or the linear regression method using two concentrations that cross 50% inhibition. Separately, the ATP concentration in the reaction solution (40 μmol/L ATP, 10 mmol/L MgCl2, 5 mmol/L DTT) at the time of the start of a reaction in the absence of the compound was changed to 80, 40, 20, 10, 5, 2.5, 1.25, or 0.625 μmol/L. Then, HTRF ratios were measured by a similar method. The value obtained by subtracting the HTRF ratio at each ATP concentration from the HTRF ratio in the absence of PI-3 kinase y was defined as the value obtained by multiplying reaction rate (v) at each ATP concentration with a constant. The Michaelis-Menten constant Km was then calculated by the Lineweaver-Burk plot method. The Ki value of a compound was calculated by the following formula wherein “μM” denotes “μmol/L.”
Ki value ═IC50 value/(1+test ATP concentration (μM)/Km (μM))

[8] = target: PI3Kβ (Homo sapiens, UniProt P42338); assay: PI3Kβ inhibitory activity (Ki value); format: biochemical
Protocol: as §1, with “60” for “0.8”, “β,” for “α, an inhibition ratio was calculated by”, “activity was used to calculate an inhibition ratio, which was” for “activity, and then”, “PI3Kβ” for “PI3Kα”
According to Example 4 above, a Km value for PI3Kβ was determined to calculate a Ki value.

[9] = target: T3, hERG channel (IKr) (Homo sapiens, UniProt Q12809); assay: hERG test (whole-cell patch-clamp, IKr in HEK293 cells); format: cell-based; settings: human, HEK293 cells expressing hERG channel, pH 7.4, inhibition of maximum tail current (IKr), compound 1 μM
T3 construct: expressed in transfected cells; host or cells: HEK293
Procedure, shortened: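 hERG-expressing HEK293 cells, automated whole-cell patch clamp: hold −80 mV, +50 mV for 2 s, then −50 mV for 2 s to record IKr tail current. Compound in extracellular solution (pH 7.4) for 10 min at room temperature; inhibition of maximum tail current calculated versus pre-application and compared with 0.1% DMSO vehicle.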

[10] = test system: AKT phosphorylation; assay: AKT phosphorylation inhibitory activity in MCP-1 stimulated THP-1 cells (sandwich ELISA); format: cell-based, Human; settings: Homo sapiens, compound at 1 μmol/L, MCP-1 stimulation, read-out: AKT phosphorylation inhibition ratio
Procedure, shortened: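 THP-1 cells (6.7×10^6/mL in HBSS) were preincubated with compound at 1 μmol/L for 5 min at 37 °C, then stimulated for 60 s with HBSS containing 1.2 μg/mL MCP-1 and lysed. Phospho-Akt Ser473/AKT1 sandwich ELISA was read at A450. % inhibition: no compound = 100% activity, no MCP-1 = 0%.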

[11] = class symbols, read-out: PI3K α Ki
[12] = class symbols, read-out: PI3K δ Ki
[13] = class symbols, read-out: PI3K γ Ki
[14] = class symbols, read-out: PI3K β Ki

PI3Kβ, sequence (P42338 whole entry, species assumed): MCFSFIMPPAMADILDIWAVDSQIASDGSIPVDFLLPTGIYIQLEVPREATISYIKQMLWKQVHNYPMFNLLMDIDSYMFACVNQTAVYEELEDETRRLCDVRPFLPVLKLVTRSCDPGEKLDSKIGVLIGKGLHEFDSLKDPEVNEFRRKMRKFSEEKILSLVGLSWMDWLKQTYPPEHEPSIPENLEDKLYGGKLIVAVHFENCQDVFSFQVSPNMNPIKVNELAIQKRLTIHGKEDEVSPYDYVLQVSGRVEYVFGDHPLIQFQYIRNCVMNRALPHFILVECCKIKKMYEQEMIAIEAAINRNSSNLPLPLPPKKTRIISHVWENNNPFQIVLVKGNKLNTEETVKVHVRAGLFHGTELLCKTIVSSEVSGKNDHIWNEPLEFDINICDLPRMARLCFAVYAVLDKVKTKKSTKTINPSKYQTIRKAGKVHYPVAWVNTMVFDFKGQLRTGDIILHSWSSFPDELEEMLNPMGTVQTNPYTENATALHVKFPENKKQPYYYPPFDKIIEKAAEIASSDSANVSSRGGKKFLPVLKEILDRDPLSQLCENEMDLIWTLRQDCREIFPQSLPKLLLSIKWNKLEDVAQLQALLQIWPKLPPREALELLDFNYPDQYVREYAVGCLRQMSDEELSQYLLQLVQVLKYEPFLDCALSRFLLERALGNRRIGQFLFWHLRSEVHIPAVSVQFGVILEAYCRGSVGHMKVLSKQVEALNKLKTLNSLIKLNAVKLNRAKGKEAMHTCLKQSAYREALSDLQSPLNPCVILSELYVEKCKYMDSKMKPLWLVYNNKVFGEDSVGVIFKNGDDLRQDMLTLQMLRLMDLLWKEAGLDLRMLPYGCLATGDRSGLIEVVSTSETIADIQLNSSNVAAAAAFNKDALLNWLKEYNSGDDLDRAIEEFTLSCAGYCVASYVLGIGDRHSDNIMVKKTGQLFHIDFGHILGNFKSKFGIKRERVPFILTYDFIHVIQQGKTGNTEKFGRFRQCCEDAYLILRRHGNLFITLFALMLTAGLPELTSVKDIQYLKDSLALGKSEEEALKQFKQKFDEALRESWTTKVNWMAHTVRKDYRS
PI3Kβ, sequence (P27986 whole entry partner, species assumed): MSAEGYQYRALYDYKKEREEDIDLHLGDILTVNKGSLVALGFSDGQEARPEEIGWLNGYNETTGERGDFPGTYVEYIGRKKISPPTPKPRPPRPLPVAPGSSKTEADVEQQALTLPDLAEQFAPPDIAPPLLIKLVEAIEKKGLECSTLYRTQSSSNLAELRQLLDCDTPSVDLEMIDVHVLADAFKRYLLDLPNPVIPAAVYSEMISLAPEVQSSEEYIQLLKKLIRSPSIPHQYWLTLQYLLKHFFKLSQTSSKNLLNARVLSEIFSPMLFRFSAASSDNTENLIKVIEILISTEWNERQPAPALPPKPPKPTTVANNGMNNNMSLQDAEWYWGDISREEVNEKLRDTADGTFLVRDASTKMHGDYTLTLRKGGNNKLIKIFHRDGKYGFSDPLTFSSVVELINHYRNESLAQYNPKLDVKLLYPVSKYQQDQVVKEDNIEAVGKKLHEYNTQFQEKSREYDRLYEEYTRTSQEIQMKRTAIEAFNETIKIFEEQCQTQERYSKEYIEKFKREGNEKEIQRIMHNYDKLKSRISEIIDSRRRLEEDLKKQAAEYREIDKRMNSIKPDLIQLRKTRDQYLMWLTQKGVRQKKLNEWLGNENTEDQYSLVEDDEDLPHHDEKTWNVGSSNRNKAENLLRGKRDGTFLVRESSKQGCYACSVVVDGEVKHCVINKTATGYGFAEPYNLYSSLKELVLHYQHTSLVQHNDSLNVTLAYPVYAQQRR
PI3Kα, sequence (P42336 whole entry, species assumed): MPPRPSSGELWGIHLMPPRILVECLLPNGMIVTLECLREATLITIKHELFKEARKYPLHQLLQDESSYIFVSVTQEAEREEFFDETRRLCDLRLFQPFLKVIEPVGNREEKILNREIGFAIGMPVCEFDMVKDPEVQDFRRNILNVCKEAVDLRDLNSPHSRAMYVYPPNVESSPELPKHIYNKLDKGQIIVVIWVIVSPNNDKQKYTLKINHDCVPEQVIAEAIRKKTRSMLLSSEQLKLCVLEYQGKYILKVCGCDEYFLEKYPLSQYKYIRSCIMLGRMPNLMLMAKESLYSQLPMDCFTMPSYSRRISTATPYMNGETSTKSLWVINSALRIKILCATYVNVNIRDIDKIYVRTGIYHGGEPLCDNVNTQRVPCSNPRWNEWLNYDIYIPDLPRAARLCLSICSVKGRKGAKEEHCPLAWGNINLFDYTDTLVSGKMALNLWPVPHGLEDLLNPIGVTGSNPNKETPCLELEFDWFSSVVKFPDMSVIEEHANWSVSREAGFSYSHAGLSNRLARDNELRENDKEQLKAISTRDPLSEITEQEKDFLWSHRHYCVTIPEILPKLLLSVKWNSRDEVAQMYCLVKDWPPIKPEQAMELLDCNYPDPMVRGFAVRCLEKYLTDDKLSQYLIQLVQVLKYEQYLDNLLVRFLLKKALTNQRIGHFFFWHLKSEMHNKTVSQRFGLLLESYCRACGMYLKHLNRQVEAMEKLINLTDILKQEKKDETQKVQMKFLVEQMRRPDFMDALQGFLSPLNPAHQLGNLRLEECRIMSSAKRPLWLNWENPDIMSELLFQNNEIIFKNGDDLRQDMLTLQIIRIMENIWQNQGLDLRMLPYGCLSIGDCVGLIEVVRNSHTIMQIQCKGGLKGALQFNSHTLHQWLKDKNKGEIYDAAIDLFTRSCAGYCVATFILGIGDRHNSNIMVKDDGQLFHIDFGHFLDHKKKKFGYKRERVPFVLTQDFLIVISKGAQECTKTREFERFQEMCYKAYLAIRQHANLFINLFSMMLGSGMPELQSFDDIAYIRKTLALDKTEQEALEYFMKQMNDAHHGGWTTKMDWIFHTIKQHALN
PI3Kα, sequence (P27986 whole entry partner, species assumed): as the sequence (P27986 whole entry partner, species assumed) above
T1 sequence (P48736 whole entry, species assumed): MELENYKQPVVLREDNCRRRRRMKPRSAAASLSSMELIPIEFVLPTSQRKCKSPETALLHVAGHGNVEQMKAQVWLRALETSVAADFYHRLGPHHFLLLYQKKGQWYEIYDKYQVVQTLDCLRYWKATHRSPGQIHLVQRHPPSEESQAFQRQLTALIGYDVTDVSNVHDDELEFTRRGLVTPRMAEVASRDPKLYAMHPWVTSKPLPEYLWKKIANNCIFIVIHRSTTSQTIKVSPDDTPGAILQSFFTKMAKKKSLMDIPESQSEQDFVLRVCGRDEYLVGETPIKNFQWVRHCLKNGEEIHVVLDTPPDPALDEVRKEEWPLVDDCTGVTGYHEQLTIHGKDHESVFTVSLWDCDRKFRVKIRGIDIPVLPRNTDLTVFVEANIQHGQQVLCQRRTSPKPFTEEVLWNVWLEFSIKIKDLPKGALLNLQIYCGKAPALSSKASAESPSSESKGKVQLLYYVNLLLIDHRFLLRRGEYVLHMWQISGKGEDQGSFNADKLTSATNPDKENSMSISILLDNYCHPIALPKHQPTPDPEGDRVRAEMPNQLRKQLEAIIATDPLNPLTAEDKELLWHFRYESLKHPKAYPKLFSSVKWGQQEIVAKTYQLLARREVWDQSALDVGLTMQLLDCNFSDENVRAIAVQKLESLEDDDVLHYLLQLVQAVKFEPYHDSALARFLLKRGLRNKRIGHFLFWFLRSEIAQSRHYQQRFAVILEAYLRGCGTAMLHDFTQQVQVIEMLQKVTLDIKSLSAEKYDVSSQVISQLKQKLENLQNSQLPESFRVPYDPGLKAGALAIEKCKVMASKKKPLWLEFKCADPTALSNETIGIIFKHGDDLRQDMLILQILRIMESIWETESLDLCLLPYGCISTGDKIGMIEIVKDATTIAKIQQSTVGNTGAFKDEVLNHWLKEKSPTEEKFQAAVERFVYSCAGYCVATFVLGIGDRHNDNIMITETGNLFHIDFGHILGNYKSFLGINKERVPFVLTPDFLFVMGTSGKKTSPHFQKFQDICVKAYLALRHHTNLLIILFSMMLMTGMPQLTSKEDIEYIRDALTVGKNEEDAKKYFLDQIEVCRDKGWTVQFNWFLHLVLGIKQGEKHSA
PI3Kδ, sequence (O00329 whole entry, species assumed): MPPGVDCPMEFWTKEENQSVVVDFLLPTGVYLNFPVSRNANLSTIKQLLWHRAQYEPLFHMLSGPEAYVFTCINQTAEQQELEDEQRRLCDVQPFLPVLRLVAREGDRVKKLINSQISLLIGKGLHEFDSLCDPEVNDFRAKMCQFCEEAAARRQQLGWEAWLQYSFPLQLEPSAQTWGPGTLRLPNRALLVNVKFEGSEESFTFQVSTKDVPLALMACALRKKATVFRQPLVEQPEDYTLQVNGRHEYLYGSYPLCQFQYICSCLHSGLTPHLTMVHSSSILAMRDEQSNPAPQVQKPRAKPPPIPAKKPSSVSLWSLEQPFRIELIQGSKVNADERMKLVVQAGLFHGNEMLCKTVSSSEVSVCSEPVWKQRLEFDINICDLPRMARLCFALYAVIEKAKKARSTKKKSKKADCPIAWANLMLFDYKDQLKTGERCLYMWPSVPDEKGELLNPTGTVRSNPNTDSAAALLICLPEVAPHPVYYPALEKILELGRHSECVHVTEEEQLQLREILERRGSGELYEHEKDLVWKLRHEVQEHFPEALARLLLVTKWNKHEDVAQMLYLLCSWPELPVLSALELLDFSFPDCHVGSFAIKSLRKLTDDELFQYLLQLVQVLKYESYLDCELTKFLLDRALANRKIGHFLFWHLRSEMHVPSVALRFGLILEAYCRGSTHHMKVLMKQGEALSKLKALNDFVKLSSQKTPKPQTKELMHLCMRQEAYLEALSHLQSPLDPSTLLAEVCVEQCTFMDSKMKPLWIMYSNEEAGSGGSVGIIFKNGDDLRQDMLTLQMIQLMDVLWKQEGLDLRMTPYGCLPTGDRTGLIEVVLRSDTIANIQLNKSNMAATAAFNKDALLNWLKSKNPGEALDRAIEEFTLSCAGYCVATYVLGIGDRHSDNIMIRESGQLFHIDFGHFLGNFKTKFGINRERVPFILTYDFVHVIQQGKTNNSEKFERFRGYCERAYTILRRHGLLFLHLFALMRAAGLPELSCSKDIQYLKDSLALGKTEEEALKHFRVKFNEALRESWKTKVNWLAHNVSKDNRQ
PI3Kδ, sequence (P27986 whole entry partner, species assumed): as the sequence (P27986 whole entry partner, species assumed) above

| Compound | inhibition at 10 µM [2] [%] | solubility at 16 h [3] [µM] | Ki [4, 11] [nM] | Ki [5, 12] [nM] | Ki [7, 13] [nM] | Ki ([7]; read-out: PI3Kγ Ki value) [nM] | Ki [8, 14] [nM] | other results |
| --- | --- | --- | --- | --- | --- | --- | --- | --- |
| COc1cc(N2CCc3nc(NC(=O)Nc4ccsc4C(=O)O)sc3C2)nc(OC)n1 [Compound I-4] | 72 | 12.3 (≈ 5.69 µg/mL) | – | – | – | – | – | hLMS_ox(at 2 μM) % ([1]; compound 2 μM): 103% |
| COc1cc(N2CCc3nc(NC(=O)Nc4ccccc4C(=O)N(C)C(C)C)sc3C2)nc(OC)n1 [Compound I-13] | ≥ 95 | 15.4 (≈ 7.88 µg/mL) | – | – | – | – | – | – |
| COc1cc(N2CCc3nc(NC(=O)Nc4ccccc4C4=NC(C)(C)CO4)sc3C2)nc(OC)n1 [Compound I-14] | 94 | – | > 3000 | > 3000 | ≤ 300 | 54 | > 3000 | MBI [6]: (−) (When 3 μmol/L or less, the compound is shown as (−)) |
| COc1cc(N2CCc3nc(NC(=O)NC4=C(C(=O)NC(C)(C)C)CCC4)sc3C2)nc(OC)n1 [Compound I-28] | ≥ 95 | – | > 3000 | ≤ 3000 | ≤ 300 | 47 | ≤ 3000 | – |
| COc1cc(N2CCc3nc(NC(=O)Nc4ccccc4OCCN(C)C)sc3C2)nc(OC)n1 [Compound I-76] | – | 26.3 (≈ 13.1 µg/mL) | – | – | – | – | – | – |
| COc1cc(C2(F)CCc3nc(NC(=O)Nc4ccccc4C(=O)NC(C)C)sc3C2)nc(OC)n1 (stereo not drawn) [Compound I-83] | ≥ 95 | – | > 3000 | > 3000 | ≤ 300 | 110 | > 3000 | hLMS_ox(at 0.5 μM) % [1]: 89.1%; Ki ([4]; read-out: PI3Kα Ki value): > 13000 nM; Ki ([5]; read-out: PI3Kδ Ki value): > 12000 nM; inhibition at 10 min, 1 µM [9]: 3.3%; Ki ([8]; read-out: PI3Kβ Ki value): > 12000 nM |
| COc1cc(N2CCc3nc(NC(=O)Nc4ccccc4OCCC(C)(C)C(=O)O)sc3C2)nc(OC)n1 [Compound I-100] | ≥ 95 | 34.4 (≈ 18.7 µg/mL) | – | – | – | – | – | hLMS_ox(at 0.5 μM) % [1]: 89.3% |
| COc1cc(N2CCc3nc(NC(=O)Nc4ccccc4C(=O)NC(C)CO)sc3C2)cnc1OC (stereo not drawn) [Compound I-104] | – | 39.6 (≈ 20.3 µg/mL) | – | – | – | – | – | hLMS_ox(at 0.5 μM) % [1]: 103% |
| CC(C)CCOc1ccccc1NC(=O)Nc1cc2n(n1)CCN2c1ccc2c(c1)CCN(C)C2=O [Compound I-112] | – | – | > 3000 | ≤ 3000 | ≤ 3000 | 1100 | > 3000 | Ki ([4]; read-out: PI3Kα Ki value): 7500 nM; Ki ([5]; read-out: PI3Kδ Ki value): 2100 nM; Ki ([8]; read-out: PI3Kβ Ki value): > 11000 nM |
| CC(C)CCc1ccccc1NC(=O)Nc1cc2n(n1)CCN2c1ccc2c(c1)CCN(C)C2=O [Compound I-113] | – | – | > 3000 | ≤ 3000 | ≤ 3000 | 2300 | > 3000 | – |
| COc1cccc(-c2ccc3nc(NC(=O)Nc4ccccc4C(=O)NC(C)C)cn3n2)c1 [Compound I-123] | – | – | > 3000 | ≤ 300 | ≤ 30 | 25 | ≤ 3000 | – |
| CC(C)NC(=O)c1ccccc1NC(=O)Nc1cn2nc(-c3cccc(S(C)(=O)=O)c3)ccc2n1 [Compound I-125] | – | – | ≤ 3000 | ≤ 300 | ≤ 30 | 13 | ≤ 300 | hLMS_ox(at 0.5 μM) % [1]: 103%; inhibition at 10 min, 1 µM [9]: 1.3% |
| CC(C)CCOc1ccccc1NC(=O)Nc1cn2nc(-c3cccc(S(C)(=O)=O)c3)ccc2n1 [Compound I-126] | – | – | > 3000 | ≤ 3000 | ≤ 300 | 61 | ≤ 3000 | – |
| COc1nc(Cl)cc(N2CCc3nc(NC(=O)Nc4ccccc4C(=O)NC4CCCC4O)sc3C2)n1 (stereo not drawn) [Compound I-174] | ≥ 95 | – | > 3000 | ≤ 3000 | ≤ 30 | 3.6 | ≤ 3000 | inhibition at 1 µM [10]: 81% |
| COc1cc(N2CCc3nc(NC(=O)NN4CCC[C@H]4C(=O)NC(C)C)sc3C2)nc(OC)n1 [Compound I-179] | – | > 50 | – | – | – | – | – | – |
| COc1cc(-c2ccc3nc(NC(=O)Nc4ccccc4OCCC(C)C)sc3c2)nc(OC)n1 [Compound I-213] | – | – | > 3000 | > 3000 | ≤ 300 | 58 | > 3000 | – |
| COc1cncc(-c2ccc3nc(NC(=O)Nc4ccccc4OCCC(C)C)nn3c2)c1 [Compound I-216] | ≥ 95 | – | > 3000 | > 3000 | ≤ 300 | 230 | ≤ 3000 | – |
| COc1cncc(-c2ccc3nc(NC(=O)Nc4ccccc4OCCC(C)C)sc3n2)c1 [Compound I-225] | ≥ 95 | – | > 3000 | > 3000 | ≤ 30 | 15 | ≤ 300 | MBI [6]: (−) (When 3 μmol/L or less, the compound is shown as (−)) |
| CC(=O)c1cccc(-c2cc(NC(=O)Nc3ccccc3C(=O)NC(C)C)nn2C)c1 [Compound I-227] | 87 | 36.8 (≈ 15.4 µg/mL) | – | – | – | – | – | – |
| Cc1cc(N2Cc3sc(NC(=O)Nc4ccccc4C(=O)NC(C)C)nc3C(C)C2)nc(Cl)n1 (stereo not drawn) [Compound I-229] | ≥ 95 | – | > 3000 | > 3000 | ≤ 30 | 9.4 | > 3000 | – |
